Results reported in ChEMBL document CHEMBL1201862, “PubChem BioAssay data set” (2004).
Calls of active or inactive are those of the source. For most assays here, no stated cut-off is given here; in the data, actives have a measured EC50 and inactives only a lower limit.

Columns and labels:
Cytochrome P450 3A4 = Cytochrome P450 3A4 (Homo sapiens, UniProt P08684);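 further: CYP3A4 tested as one member of a cytochrome P450 panel screen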
[1] = NIH3T3 cell viability loss – ATP luminescence, mouse fibroblasts, counter-screen, dose response (AID 2010); format: functional, cell-based;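 further: cells exposed to compound for about 90 hours before reading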
[2] = Trypanosoma cruzi growth suppression in host cells – NIH3T3 host cells, beta-gal luminescence, confirmation (AID 2044); format: functional, cell-based;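 further: intracellular parasites grown in NIH/3T3 mouse fibroblasts as host cells; luminescent beta-galactosidase reporter signal from transgenic T. cruzi replicating inside host cells; inhibitors lower the luminescence signal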
Cytochrome P450 2C9 = Cytochrome P450 2C9 (Homo sapiens, UniProt P11712)
Sequence of Cytochrome P450 2C9 (P11712 whole entry): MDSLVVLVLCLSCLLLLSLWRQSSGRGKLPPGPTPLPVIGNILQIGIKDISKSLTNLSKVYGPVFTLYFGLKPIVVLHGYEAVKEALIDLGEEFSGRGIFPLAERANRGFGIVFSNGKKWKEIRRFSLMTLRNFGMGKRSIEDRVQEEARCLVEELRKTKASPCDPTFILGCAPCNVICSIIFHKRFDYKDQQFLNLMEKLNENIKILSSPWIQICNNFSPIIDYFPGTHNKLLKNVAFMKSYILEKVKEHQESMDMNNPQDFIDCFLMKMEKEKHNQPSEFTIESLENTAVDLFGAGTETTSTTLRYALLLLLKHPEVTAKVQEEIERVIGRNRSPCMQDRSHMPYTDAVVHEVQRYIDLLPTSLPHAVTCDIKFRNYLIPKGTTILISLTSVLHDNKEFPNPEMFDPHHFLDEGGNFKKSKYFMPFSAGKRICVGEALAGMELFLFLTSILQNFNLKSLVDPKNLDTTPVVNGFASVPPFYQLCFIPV

Streptococcus = test: GAS UMAA2166 growth inhibition – luminescence, BacTiterGlo, counter-screen for streptokinase expression inhibitor project, dose response (AID 1915); format: functional, organism-based;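 further: potency for reduction of bacterial viability or growth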
[3] = system: Streptococcus sp. 'group A'; test: Streptococcus pyogenes SK(-)GAS viability under kanamycin – luminescence, BacTiterGlo, confirmation, counter-screen for streptokinase expression inhibitor project, dose response (AID 1900); format: functional, organism-based

Sequence of Cytochrome P450 3A4 (P08684 whole entry): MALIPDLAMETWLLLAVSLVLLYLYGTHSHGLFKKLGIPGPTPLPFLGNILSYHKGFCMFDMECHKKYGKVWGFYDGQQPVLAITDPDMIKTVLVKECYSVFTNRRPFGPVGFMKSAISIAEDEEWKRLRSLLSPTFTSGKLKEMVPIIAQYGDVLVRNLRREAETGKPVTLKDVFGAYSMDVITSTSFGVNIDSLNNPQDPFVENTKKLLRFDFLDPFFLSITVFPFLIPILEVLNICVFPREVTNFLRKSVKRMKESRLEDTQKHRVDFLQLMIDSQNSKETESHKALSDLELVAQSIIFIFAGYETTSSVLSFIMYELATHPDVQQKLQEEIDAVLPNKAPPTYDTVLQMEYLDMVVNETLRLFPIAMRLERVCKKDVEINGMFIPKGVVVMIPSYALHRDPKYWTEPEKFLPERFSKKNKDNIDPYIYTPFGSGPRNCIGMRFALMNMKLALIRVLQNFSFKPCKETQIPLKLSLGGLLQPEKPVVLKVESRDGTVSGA

| SMILES | AC50 (Cytochrome P450 3A4) | EC50 [1] | EC50 [2] | also measured |
| --- | --- | --- | --- | --- |
| C[N+](C)(CCCCCC[N+](C)(C)CCCN1C(=O)c2cccc3cccc(c23)C1=O)CCCN1C(=O)c2cccc3cccc(c23)C1=O | 2.51 µM (inconclusive) |  |  |  |
| CC(=O)c1ccc(N2CCN(C(=O)c3ccc(Cn4c(=S)[nH]c5ccc(N6CCOCC6)cc5c4=O)cc3)CC2)cc1 |  | > 60 µM (not active) | 1.07 µM (active) |  |
| Cc1ccc(OCCNC(=O)c2cncc(Br)c2)cc1C |  |  |  | AC50 (Cytochrome P450 2C9): 25.1 µM (inconclusive) |
| COCCNc1nc(-c2ccoc2)nc2ccccc12 | 12.6 µM (inconclusive) |  |  |  |
| C=CCOc1c(Br)cc(CNCCCN2CCOCC2)cc1OC |  | 22.9 µM (active) | 0.521 µM (active) |  |
| Fc1ccc(C2=Nn3c(Cc4ccccc4F)nnc3SC2)cc1 | 12.6 µM (inconclusive) |  |  | AC50 (Cytochrome P450 2C9): 2 µM (inconclusive) |
| COc1ccc(-n2c(=O)c(CCc3ccccc3)nc3cnc(N4CCN(C)CC4)nc32)cc1 | 12.6 µM (inconclusive) |  |  |  |
| CCN(CC)CCN(C(=O)c1ccc2c(c1)CCCC2)c1nc2ccc(F)cc2s1 |  | > 60 µM (not active) | 0.818 µM (active) |  |
| CC(=O)N1CCc2cc(Br)cc(S(=O)(=O)N3CCN(C(=O)c4ccco4)CC3)c21 | 15.8 µM (inconclusive) |  |  |  |
| COC(=O)c1ccc(C2Nc3cccc4cccc(c34)N2)cc1 |  | > 60 µM (not active) | 6.1 µM (active) |  |
| CN(CCc1ccccn1)Cc1ccc(Cl)cc1 |  | > 60 µM (not active) | 0.221 µM (active) |  |
| O=C(COc1ccccc1)NC(=S)Nc1ccc2c(c1)Cc1ccccc1-2 |  | > 60 µM (not active) | 0.641 µM (active) |  |
| Fc1ccccc1Cc1noc(CN2CCN(C/C=C/c3ccccc3)CC2)n1 |  | > 60 µM (inconclusive) | 0.443 µM (active) |  |
| O=C(CC1C(=O)NCCN1C(=S)Nc1ccccc1)Nc1ccc2c(c1)OCCO2 (stereo not drawn) | 25.1 µM (inconclusive) |  |  | AC50 (Cytochrome P450 2C9): 35.5 µM (inconclusive) |
| O=C1CC(SC(=Nc2ccccc2)Nc2ccccc2)C(=O)N1c1ccc(Cl)c(Cl)c1 (stereo not drawn) |  | > 60 µM (inconclusive) | 2.06 µM (active) |  |
| Cc1nc2ccccn2c1C(=O)C1=C(O)C(=O)N(CCCn2ccnc2)C1c1ccncc1 (stereo not drawn) |  |  |  | AC50 (Cytochrome P450 2C9): 11.2 µM (inconclusive) |
| Cc1ccc(S(=O)(=O)NCC(c2cccnc2)N2CCN(Cc3ccccc3)CC2)cc1 (stereo not drawn) |  | > 60 µM (not active) | 0.732 µM (active) |  |
| CCNc1nc(Sc2ccc(C)cc2)cc(C(F)(F)F)n1 | 22.4 µM (inconclusive) |  |  |  |
| CCC(c1nnnn1CS(=O)(=O)c1ccc(C)cc1)N1CCN(c2nc3ccccc3s2)CC1 (stereo not drawn) |  | > 30 µM (not active) | 0.861 µM (active) |  |
| CC[C@H](Cc1c(I)cc(I)c(N)c1I)C(=O)O |  |  |  | AC50 (Cytochrome P450 2C9): 6.31 µM (inconclusive) |
| COc1ccc(N2CCN(C(=O)c3ccc(Cn4c(=S)[nH]c5ccc(N6CCOCC6)cc5c4=O)cc3)CC2)cc1 |  | > 30 µM (not active) | 0.684 µM (active) |  |
| C=CCNCCOCCOc1ccc(C)cc1Br |  | > 60 µM (not active) | 3.36 µM (active) |  |
| CCOc1ccc(C(CC(=O)O)NC(=O)COc2ccccc2)cc1 (stereo not drawn) |  |  |  | AC50 (Cytochrome P450 2C9): 39.8 µM (inconclusive) |
| CC(COc1cccc2ccccc12)CN1CCN(C)CC1 (stereo not drawn) |  | > 30 µM (not active) | 0.284 µM (active) |  |

| SMILES | AC50 (Cytochrome P450 3A4) | EC50 [1] | EC50 [2] | also measured |
| --- | --- | --- | --- | --- |
| CCOC(=O)C1CCCN(C/C=C/c2ccccc2[N+](=O)[O-])C1 (stereo not drawn) | 25.1 µM (inconclusive) |  |  | AC50 (Cytochrome P450 2C9): 15.8 µM (inconclusive) |
| CCCCn1c(=O)c(C(=O)Nc2ccccn2)c(O)c2ccccc21 |  |  |  | EC50 (Streptococcus): 19.2 µM (active); EC50 [3]: 3.64 µM (active) |
| COc1cccc(CN2CCN(Cc3c(C)nn(C(C)C)c3C)CC2CCO)c1 (stereo not drawn) |  | > 60 µM (not active) | 1.14 µM (active) |  |
| CC(C)c1cccc(OCCCCN(C)C)c1 |  | > 60 µM (not active) | 0.587 µM (active) |  |
| CC(C)NC(=O)N1CC[C@@]2(CCCN(S(=O)(=O)c3ccccc3)C2)C1 | 20 µM (inconclusive) |  |  |  |
| COc1c(C)cc(Br)cc1C(=O)Nc1ccc(Cc2ccncc2)cc1 |  | > 60 µM (not active) | 2.16 µM (active) |  |
| CCOc1ccc(-c2nnc3n2N=C(c2ccc(OC)cc2)CS3)cc1 |  |  |  | AC50 (Cytochrome P450 2C9): 2.51 µM (inconclusive) |
| COc1ccc(/C=C/C(=O)NC(=S)NNC(=O)c2cc(OC)c(OC)c(OC)c2)cc1 |  |  |  | EC50 (Streptococcus): 3.48 µM (active); EC50 [3]: 1.38 µM (active) |
| Cc1nn(CC(N)=O)c(=O)c2ccccc12 |  | > 30 µM (not active) | 0.903 µM (active) |  |
| Cc1cnc(CNc2ccnc(-c3ccc(N(C)C)cc3)n2)cn1 | 10 µM (inconclusive) |  |  |  |
| CCCCn1c2ccc(F)cc2c2nnc(SCCN3CCCCC3)nc21 |  | > 60 µM (not active) | 0.681 µM (active) |  |
| O=C(NCC1CCCO1)C(c1cccs1)N(Cc1ccccc1Cl)C(=O)c1ccc(-c2ccccc2)[nH]1 (stereo not drawn) |  | > 30 µM (not active) | 2.96 µM (active) |  |
| CCOC(=O)N(c1ccccc1)P1(=S)OCCO1 |  |  |  | AC50 (Cytochrome P450 2C9): 0.0355 µM (inconclusive) |
| COc1ccc(C(=O)C2CCCN(Cc3cccc4c3OCO4)C2)cc1OC (stereo not drawn) |  | 12.4 µM (active) | 0.576 µM (active) |  |
| O=C(NC1CCCC1)c1cnn2c(C(F)(F)F)cc(-c3ccco3)nc12 |  |  |  | AC50 (Cytochrome P450 2C9): 22.4 µM (inconclusive) |
| O=C(Nc1nc(-c2ccc(F)cc2)cs1)C1CCN(C(=O)c2ccc(F)cc2)CC1 |  | > 60 µM (not active) | 4.57 µM (active) |  |
| O=c1c(-c2ccc(F)c(F)c2)nc2cncnc2n1Cc1ccccc1Cl | 12.6 µM (inconclusive) |  |  |  |
| Cn1c(=O)c2c(nc(N3CCN(c4ccccn4)CC3)n2Cc2ccccc2Cl)n(C)c1=O | 1.26 µM (inconclusive) |  |  |  |
| CCOc1ccc2nc(N3CCCCCC3)sc2c1 | 35.5 µM (inconclusive) |  |  | AC50 (Cytochrome P450 2C9): 12.6 µM (inconclusive) |
| O=C(c1cc(-c2cccs2)on1)N1CCN(c2ccc(F)cc2)CC1 | 20 µM (inconclusive) |  |  |  |
| Cc1cc2ccccn2c1C(=O)c1nc(N2CCOCC2)ncc1Cl | 28.2 µM (inconclusive) |  |  | AC50 (Cytochrome P450 2C9): 39.8 µM (inconclusive) |
| O=c1c(-c2cccs2)nc2cnc(N3CCOCC3)nc2n1-c1ccccc1 | 7.94 µM (inconclusive) |  |  | AC50 (Cytochrome P450 2C9): 10 µM (inconclusive) |
| Cc1ccc(SCCN2CCN(C)CC2)cc1 |  | 10.3 µM (active) | 0.852 µM (active) |  |
| COc1cc(S(=O)(=O)N2CCC(O)(c3cccc(C(F)(F)F)c3)CC2)ccc1-n1cnnn1 |  | > 60 µM (not active) | 2.61 µM (active) |  |

| SMILES | AC50 (Cytochrome P450 3A4) | EC50 [1] | EC50 [2] | also measured |
| --- | --- | --- | --- | --- |
| CCO/C(O)=C/C1=NC2(CCCCC2)Cc2cc(OC)c(OC)cc21 |  | > 60 µM (not active) | 2.2 µM (active) |  |
| COC(=O)N1CCC2(CCCN(c3ccc(-c4ccccc4)cc3)C2)CC1 | 39.8 µM (inconclusive) |  |  |  |
| Cc1cnc2cc(Cl)ccc2c1SCC(=O)O | 3.98 µM (inconclusive) |  |  |  |
| COc1cc(OC)c(C2C(C(=O)Nc3ccc(C)cc3C)=C(C)Nc3ncnn32)cc1OC (stereo not drawn) |  |  |  | AC50 (Cytochrome P450 2C9): 15.8 µM (inconclusive) |
| Cc1oc(-c2cccc(Cl)c2)nc1CN1CCCC(C(=O)NCCCN2CCOCC2)C1 (stereo not drawn) |  | > 60 µM (not active) | 0.234 µM (active) |  |
| CCN(CC)P(=O)(Nc1ccccc1Br)c1ccc(N(C)C)cc1NC(=O)c1ccco1 (stereo not drawn) |  | > 60 µM (not active) | 1.95 µM (active) |  |
| N#CC(C(=O)OC1CCCCC1)c1nc2ccccc2nc1N1CCCCC1 (stereo not drawn) |  | 8.74 µM (active) | 1.01 µM (active) |  |
| Cc1nc2cnc(OCc3ccccc3)nc2n(CCC#N)c1=O | 3.98 µM (inconclusive) |  |  |  |
| O=C(c1csnn1)N1CCC2(CC1)CN(Cc1ccncc1)C2 | 15.8 µM (inconclusive) |  |  |  |
| CCNc1ncc2nc(-c3ccccc3)c(=O)n(CCC#N)c2n1 | 25.1 µM (inconclusive) |  |  |  |
| O=C1C2C(c3ccccc3)CC=CC2[C@H](c2cccc([N+](=O)[O-])c2)N1Cc1ccccc1 (stereo partly drawn) |  | > 60 µM (not active) | 2.17 µM (active) |  |
| COc1ccccc1CNc1ncncc1-c1ccccc1C | 0.398 µM (inconclusive) |  |  |  |
| CC(C)OC(=O)c1cn(-c2ccccc2)nc1-c1ccco1 |  | 31.6 µM (active) | 1.61 µM (active) |  |
| CCC(C)Nc1c([N+](=O)[O-])cc(C)cc1[N+](=O)[O-] (stereo not drawn) | 25.1 µM (inconclusive) |  |  | AC50 (Cytochrome P450 2C9): 15.8 µM (inconclusive) |
| CCCCCCCCCCCCCCCCCCNC(=O)OC[C@@H](COP(=O)([O-])OCC[n+]1ccsc1)OC |  |  |  | AC50 (Cytochrome P450 2C9): 39.8 µM (inconclusive) |
| CSc1cc2c(cc1C(F)(F)F)N(C(=O)Nc1cccnc1)CC2 | 3.98 µM (inconclusive) |  |  |  |
| C/C(=N\OC(=O)NC(C)C)c1sc(-c2ccccc2)nc1C | 25.1 µM (inconclusive) |  |  | AC50 (Cytochrome P450 2C9): 11.2 µM (inconclusive) |
| Cc1nn(Cc2ccc(F)cc2)c(Cl)c1/C=N/NC(=O)c1ccccc1 |  | > 60 µM (not active) | 2.67 µM (active) |  |
| O=C(N/N=C\c1cccc(F)c1)c1ccc(Cn2cc(Br)c([N+](=O)[O-])n2)o1 |  | > 60 µM (not active) | 0.889 µM (active) |  |
| Nc1c(S(=O)(=O)O)cc(Nc2cccc(S(N)(=O)=O)c2)c2c1C(=O)c1ccccc1C2=O | 7.94 µM (inconclusive) |  |  |  |
| CN1/C(=C/c2cccc[n+]2C)Sc2ccccc21 |  | > 60 µM (not active) | 0.185 µM (active) |  |
| CCOC(=O)CCC(=O)O[C@H]1[C@H](O[C@@H]2[C@@H](C)[C@H](O[C@H]3C[C@@](C)(OC)[C@@H](O)[C@H](C)O3)[C@@H](C)C(=O)O[C@H](CC)[C@@](C)(O)[C@H](O)[C@@H](C)C(=O)[C@H](C)C[C@@]2(C)O)O[C@H](C)C[C@@H]1N(C)C [ERYTHROMYCIN ETHYLSUCCINATE] |  |  |  | EC50 (Streptococcus): < 0.06 µM (active); EC50 [3]: < 0.06 µM (active) |
